Source: patent US9994533B2, “Method of preparing ATG's analogue, and the application of ATG and it's analogue” (Longhua Hospital Shanghai University of Traditional Chinese …, priority 2016, dated 2018)

Columns and labels:
[1] = molecular target: T1, Keratin, type II cytoskeletal 5 (Homo sapiens, UniProt P13647); experiment: DARTS mass spectrometry of 293T lysate after ATG; format: binding; details: ATG 300 μM, pronase 1:1000, K2C5_HUMAN
T1 construct: endogenous in cells; host or cells: 293T
T1 sequence (P13647 1-590): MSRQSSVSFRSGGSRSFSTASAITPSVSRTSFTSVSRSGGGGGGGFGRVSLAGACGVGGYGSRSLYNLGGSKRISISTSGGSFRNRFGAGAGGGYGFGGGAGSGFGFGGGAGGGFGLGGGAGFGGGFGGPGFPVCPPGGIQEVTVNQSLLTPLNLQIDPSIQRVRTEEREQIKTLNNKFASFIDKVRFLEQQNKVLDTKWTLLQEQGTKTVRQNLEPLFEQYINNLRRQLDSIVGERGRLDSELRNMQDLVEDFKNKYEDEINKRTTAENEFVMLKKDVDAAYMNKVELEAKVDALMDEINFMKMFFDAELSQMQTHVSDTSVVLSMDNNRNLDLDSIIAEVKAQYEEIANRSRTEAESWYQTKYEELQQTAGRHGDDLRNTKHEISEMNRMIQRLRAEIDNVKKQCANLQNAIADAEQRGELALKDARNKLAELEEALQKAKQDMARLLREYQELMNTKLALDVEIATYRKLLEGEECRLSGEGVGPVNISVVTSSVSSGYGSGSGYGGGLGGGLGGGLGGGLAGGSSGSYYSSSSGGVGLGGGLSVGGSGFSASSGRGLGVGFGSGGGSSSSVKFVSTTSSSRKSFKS
Description: (§1) 293T cells were digested with M-PER mammalian protein extraction buffer (78501 ThermoFisher) and phosphatase inhibitor (50 mM NaF, 10 mM β-glycerophosphate, 5 mM sodium pyrophosphate, 2 mM Na3VO4); and the protein concentration is determined by Bradford method (500-0006 Bio-rad). ATG was either added or not in the cell lysate. If added, the concentration of ATG was 300 μM. The cells were incubated at room temperature for 1 h. The cells were then lysed by incubating for 20 minutes at room temperature with different concentrations of pronase at 1:1000 (10165921001, Roche). The two groups of lysates are subjected to mass spectrometry and then compared.

[2] = molecular target: T2, Keratin, type II cytoskeletal 6A (Homo sapiens, UniProt P02538); experiment: DARTS mass spectrometry of 293T lysate after ATG; format: binding; details: ATG 300 μM, pronase 1:1000, K2C6A_HUMAN
T2 construct: endogenous in cells; host or cells: 293T
T2 sequence (P02538 2-564 limits assumed): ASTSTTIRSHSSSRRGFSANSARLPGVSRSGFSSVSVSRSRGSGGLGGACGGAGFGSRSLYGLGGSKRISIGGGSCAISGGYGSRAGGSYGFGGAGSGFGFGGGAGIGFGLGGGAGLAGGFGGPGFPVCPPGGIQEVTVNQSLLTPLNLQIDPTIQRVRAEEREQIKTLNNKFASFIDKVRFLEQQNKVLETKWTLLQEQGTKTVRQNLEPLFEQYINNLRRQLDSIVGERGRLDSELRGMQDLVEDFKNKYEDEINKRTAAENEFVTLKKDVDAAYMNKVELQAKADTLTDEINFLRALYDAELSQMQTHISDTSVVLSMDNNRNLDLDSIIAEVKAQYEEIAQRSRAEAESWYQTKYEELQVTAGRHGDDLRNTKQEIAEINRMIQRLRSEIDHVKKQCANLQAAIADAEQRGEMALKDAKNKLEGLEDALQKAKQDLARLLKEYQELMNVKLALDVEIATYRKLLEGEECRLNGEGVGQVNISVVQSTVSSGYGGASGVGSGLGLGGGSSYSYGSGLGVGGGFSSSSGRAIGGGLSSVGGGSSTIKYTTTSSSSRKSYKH
Description: as §1

[3] = test system: PP2A; experiment: PP2A activity in immortal podocytes (PP2A activity kit); format: cell-based; details: 1 hour
Description: Immortal podocytes were stimulated with ATG at concentrations of 0, 1.0 μm, 3.3 μm, and 10 μm, and the stimulation time was 1 hour. The activity of PP2A was detected by PP2A activity kit (R & D systems, DYC3309-2).

[4] = test system: NOX4 gene; experiment: NOX4 mRNA expression in glomeruli of STZ-eNOS−/− mice (RT-PCR); format: in vivo; details: FIG. 5
Excerpt: The detection method of Western Blot and mRNA used in the present embodiment is a detection method commonly used by person skilled in the art, and the specific detection method is described in “Molecular Biology Laboratory Manual” (People's Military Medical Press, published in 2011 Jun. 1). Further, the mRNA of the glomeruli was extracted and subjected to RT-PCR.

[5] = test system: NOX4; experiment: NOX4 protein expression in mouse primary endothelial cells under high glucose (Western blot); format: cell-based
Excerpt: The detection method of Western Blot and mRNA used in the present embodiment is a detection method commonly used by person skilled in the art, and the specific detection method is described in “Molecular Biology Laboratory Manual” (People's Military Medical Press, published in 2011 Jun. 1). 3.2 Western blot and Realtime PCR confirmed that ATG could inhibit the overexpression of NOX4 in mouse's primary endothelial cells. The dose of 1 and 10 μmol/L corresponds to the last two bands.

[6] = test system: NOX; experiment: NOX-related ROS induced by high glucose (NADPH oxidative activity, luminescence); format: cell-based, human
Description: The human immortal podocytes were divided into 6 groups: blank group, high glucose group (30 mM), high glucose+10 μMATG, high glucose+20 μMATG, high glucose+50 μMATG, high glucose+100 μMATG.
The effects of ATG on NOX producing ROS were observed by measuring the oxidative activity of NADPH (reduced coenzyme II): The […] were washed twice with HBSS (Hanks balanced salt solution), during which the cell culture dish was placed on ice. The cells were scraped with frozen HBSS containing protease inhibitors, then homogenated. The protein concentration was measured and calculated. 30 μg protein was added to each well and 25 μM […] (Santa Cruz) and 200 μM NADPH (Cayman Chemical) were also added. After staying in the dark room for 10 minutes at 37° C., the luminescence of each well was measured. Results: There was significant difference of ROS between high glucose group and normal group (P<0.05). The different concentration of ATG (10 μM, 20 μM, 50 μM, 100 μM) could reduce the amount of ROS induced by NOX. See Table 7 and FIG. 10 for the details.

Compound: COc1cc(C[C@H]2C(=O)OC[C@@H]2Cc2ccc(OC)c(OC)c2)ccc1O [ATG, Arctigenin]
- Ratio (ATG/DMSO) [1]: 4.7
- Spectral Count (ATG) [1]: 7
- Ratio (ATG/DMSO) [2]: 5.2
- Spectral Count (ATG) [2]: 8
- activity of PP2A, dependence on concentration ([3]; ATG 0 to 10 μm): increased with the increase of ATG concentration
- PP2A activity values, mean ([3]; ATG 1.0 μm): 0.0268
- PP2A activity values, mean ([3]; ATG 3.3 μm): 0.0279
- PP2A activity values, mean ([3]; ATG 10 μm): 0.0484
- mRNA expression of NOX4 gene in glomeruli [4]: significantly reduced
- NOX4/B-Tubulin Mean ([5]; ATG 1 uM): 0.18
- NOX4/B-Tubulin Mean ([5]; ATG 10 uM): 0.12
- NOX-related ROS (luminescence), mean ([6]; HG + 10 μM ATG): 1030
- NOX-related ROS (luminescence), mean ([6]; HG + 20 μM ATG): 864
- NOX-related ROS (luminescence), mean ([6]; HG + 50 μM ATG): 794
- NOX-related ROS (luminescence), mean ([6]; HG + 100 μM ATG): 832
